# Measured values reported in paper PMC7725785, “TRIB3 promotes MYC-associated lymphoma development through suppression of UBE3B-mediated MYC degradation” (Nature Communications, 2020).
# What was measured:
# MYC target genes = test: qRT-PCR of MYC target genes; assay type: cell-based, human; details: qRT-PCR and RNA-seq; result in words
# Method: Total RNA was extracted using TRIzol (Invitrogen, CA, USA) according to the manufacturer’s instructions. Reverse transcription of total cellular RNA was carried out using oligo (dT) primers and M-MLV reverse transcriptase (Transgen Biotech, Beijing, China). PCR was performed using a Mycycler thermal cycler and analyzed using LineGene9600. The PCR primer sequences were as follows: MYC forward, 5′-[…]-3′; MYC reverse, 5′-[…]-3′; GAPDH forward, 5′-[…]-3′; GAPDH reverse, 5′-[…]-3′; TFAP4 forward, 5′-[…]-3′, TFAP4 reverse, 5′-[…]-3′; PLD6 forward, 5′-[…]-3′, PLD6 reverse, 5′-[…]-3′; CCNA1 forward, 5′-[…] GCAG-3′, CCNA1 reverse, 5′-[…]-3′; CCND1 forward, 5′-CCGTCC […]-3′, CCND1 reverse, 5′-[…]-3′; CCNE2 forward, 5′-TTC […]-3′; and CCNE2 reverse, 5′-[…]-3′. The human FBXW7 siRNA sequence was 5′-[…]-3′, the human MYC siRNA sequence was 5′-[…] GCGAA-3′, and the human HUWE1 siRNA sequence was 5′-[…]-3’. TRIB3 siRNAs were produced by RiboBio (Guangzhou, China) and transfected using Lipofectamine RNA interference MAX Transfection Reagent (Life Technologies, CA, USA) according to the manufacturer’s instructions.
# primary mouse BCL cells = test: Serial colony formation of primary mouse BCL cells from Myc^Eμ mice; assay type: cell-based; details: result in words
# Source text: Mouse and human lymphoma cells formed colonies upon serum culture (P1). Single colonies of lymphoma cells were dispersed in methylcellulose-based medium MethoCul^TM M3630 (StemCell, 03630) or MethoCult™SF H4536 (StemCell, 04536). A representative plate was then washed and cells were resuspended and replated. After an additional 14 days, colonies were counted (P2).
# DLBCL^T69 PDX = test: PDX model tumor growth and weight, DLBCL T69; assay type: in vivo, human; details: result in words
# Method: Four 5-week-old male NSG mice were implanted subcutaneously with 200 μl of a 1:1 mixture of Matrigel® Basement Membrane Matrix High Concentration (Corning, 354230) and minced fresh tumor fragments resected from lymphoma patients. Approximately 3–4 weeks following implantation, the first-generation mice (G1) were killed, and tumor masses were isolated. The tumor cells were tested for human CD19 (BCL) or CD3 expression (T cell lymphoma), and the remaining tumor mass was cut into 3-mm^3 sections and passaged into 4–5 NSG mice as the second generation (G2). After stable passage of the third generation (G3), the tumor mass of the fourth generation (G4) was equally cut into 3-mm^3 pieces and then passaged subcutaneously into 30–50 NSG mice (100 μl of a 1:2 mixture of Matrigel and tumor tissue) for in vivo treatment (6–8 mice per group, dependent on the experimental drug treatment). During and after treatment with the vehicle control or the indicated agent, tumor burden was evaluated by measuring the tumor volume to determine the therapeutic efficacy in the PDX models. […]
# To evaluate the survival rate, these mice were monitored for 8 months (Myc^Eμ mice). […] During the indicated treatments, tumor burden was evaluated by measuring the tumor volume to determine the therapeutic efficacy in the PDX models.
sequence,measurement,setting,value
"HLYVSPWGGKRREQLKHKLEQLR [PCM4, fused peptide generated by linking CM4 to a cell-penetrating peptide]",transcription of MYC target genes,MYC target genes,suppressed the transcription of MYC target genes
same,intrinsic clonogenicity of primary mouse BCL cells,primary mouse BCL cells,reduced the intrinsic clonogenicity
same,"growth and weights of tumors, combination of PCM4 and DOX","DLBCL^T69 PDX; PDX T69 (high TRIB3 and MYC expression), PCM4 5 mg/kg and DOX 2 mg/kg",further decreased the growth and weights of tumors
same,tumor growth of PDX,"DLBCL^T69 PDX; PDX T69, NSG mice, PCM4 5 mg/kg i.v. three times a week",inhibited the tumor growth
